From PubChem BioAssay (NCI)
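Values below derive from 48-hour exposures of cells grown in 96-well plates, with endpoints linearly interpolated between the two concentrations bracketing the appropriate inhibition level. TGI is the concentration that stops growth completely.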

Experiments:
Experiment in all cases: growth of human tumour cells (NCI), 48 h
KM12 colon = test system: KM12 colon
MOLT-4 leukemia = test system: MOLT-4 leukemia
NCI-H226 lung = test system: NCI-H226 lung
SK-MEL-5 melanoma = test system: SK-MEL-5 melanoma
786-0 renal = test system: 786-0 renal
HOP-92 NSCLC = test system: HOP-92 NSCLC
OVCAR-4 ovarian = test system: OVCAR-4 ovarian
UACC-62 melanoma = test system: UACC-62 melanoma
HS 578T breast = test system: HS 578T breast
DU-145 prostate = test system: DU-145 prostate
SW-620 colon = test system: SW-620 colon
SK-MEL-28 melanoma = test system: SK-MEL-28 melanoma
OVCAR-5 ovarian = test system: OVCAR-5 ovarian

CCOC(=O)N1N=C(/C(C)=N/OC)C(C)S1=O (centres undefined)
TGI (KM12 colon): > 100 µM
TGI (MOLT-4 leukemia): > 100 µM
TGI (NCI-H226 lung): > 100 µM
TGI (SK-MEL-5 melanoma): > 100 µM
TGI (786-0 renal): > 100 µM
TGI (HOP-92 NSCLC): > 100 µM
TGI (OVCAR-4 ovarian): > 100 µM
TGI (UACC-62 melanoma): > 100 µM
TGI (HS 578T breast): > 100 µM
TGI (DU-145 prostate): > 100 µM
TGI (SW-620 colon): > 100 µM
TGI (SK-MEL-28 melanoma): > 100 µM
TGI (OVCAR-5 ovarian): > 100 µM

CCOC(=O)C(=CNc1ccc(NC2=NCC(C)S2)cc1)C(=O)OCC (centres undefined)
TGI (KM12 colon): > 87.9 µM
TGI (MOLT-4 leukemia): 30 µM
TGI (NCI-H226 lung): > 100 µM
TGI (SK-MEL-5 melanoma): 34.5 µM
TGI (786-0 renal): 84.6 µM
TGI (HOP-92 NSCLC): > 86.7 µM
TGI (OVCAR-4 ovarian): > 51.8 µM
TGI (UACC-62 melanoma): 26.8 µM
TGI (HS 578T breast): 74.8 µM
TGI (DU-145 prostate): > 100 µM
TGI (SW-620 colon): > 100 µM
TGI (SK-MEL-28 melanoma): > 100 µM
TGI (OVCAR-5 ovarian): > 100 µM

NC(=O)C(=CNC(=S)Nc1ccccc1)C(N)=O
TGI (KM12 colon): > 100 µM
TGI (MOLT-4 leukemia): > 100 µM
TGI (NCI-H226 lung): > 100 µM
TGI (SK-MEL-5 melanoma): > 100 µM
TGI (786-0 renal): > 100 µM
TGI (HOP-92 NSCLC): > 100 µM
TGI (OVCAR-4 ovarian): > 100 µM
TGI (UACC-62 melanoma): > 100 µM
TGI (HS 578T breast): > 100 µM
TGI (DU-145 prostate): > 100 µM
TGI (SW-620 colon): > 100 µM
TGI (SK-MEL-28 melanoma): > 100 µM
TGI (OVCAR-5 ovarian): > 100 µM

Oc1[nH]c2ccccc2c1N=NC(=S)Nc1ccccc1Cl
TGI (KM12 colon): 14.9 µM
TGI (MOLT-4 leukemia): 4.95 µM
TGI (NCI-H226 lung): 53 µM
TGI (SK-MEL-5 melanoma): 15.8 µM
TGI (786-0 renal): 20.8 µM
TGI (HOP-92 NSCLC): 56.2 µM
TGI (OVCAR-4 ovarian): 63.7 µM
TGI (UACC-62 melanoma): 20.6 µM
TGI (HS 578T breast): 56.1 µM
TGI (DU-145 prostate): 58.5 µM
TGI (SW-620 colon): 40.3 µM
TGI (SK-MEL-28 melanoma): 75.6 µM
TGI (OVCAR-5 ovarian): > 100 µM

CCOC(=O)c1sc2nc(SC)nc3c2c1NCN3c1ccc2c(c1)OCO2
TGI (KM12 colon): > 100 µM
TGI (MOLT-4 leukemia): 78.8 µM
TGI (NCI-H226 lung): > 100 µM
TGI (SK-MEL-5 melanoma): > 100 µM
TGI (786-0 renal): 15 µM
TGI (HOP-92 NSCLC): 32.4 µM
TGI (OVCAR-4 ovarian): 26.4 µM
TGI (UACC-62 melanoma): 31.8 µM
TGI (HS 578T breast): 8.07 µM
TGI (DU-145 prostate): 39.7 µM
TGI (SW-620 colon): 45.1 µM
TGI (SK-MEL-28 melanoma): > 100 µM
TGI (OVCAR-5 ovarian): > 100 µM

COc1ccc(OC)c(N(CN2C(=O)CCC2C(=O)O)C(C)=O)c1 (centres undefined)
TGI (KM12 colon): > 100 µM
TGI (MOLT-4 leukemia): > 100 µM
TGI (NCI-H226 lung): > 100 µM
TGI (SK-MEL-5 melanoma): > 100 µM
TGI (786-0 renal): > 100 µM
TGI (HOP-92 NSCLC): > 100 µM
TGI (OVCAR-4 ovarian): > 100 µM
TGI (UACC-62 melanoma): > 100 µM
TGI (HS 578T breast): > 100 µM
TGI (DU-145 prostate): > 100 µM
TGI (SW-620 colon): > 100 µM
TGI (SK-MEL-28 melanoma): > 100 µM
TGI (OVCAR-5 ovarian): > 100 µM

COC(=O)[C@]1(NC(=O)c2ccccc2)C[C@H]1C=O
TGI (KM12 colon): > 100 µM
TGI (MOLT-4 leukemia): > 100 µM
TGI (NCI-H226 lung): > 100 µM
TGI (SK-MEL-5 melanoma): > 100 µM
TGI (786-0 renal): > 100 µM
TGI (HOP-92 NSCLC): > 100 µM
TGI (OVCAR-4 ovarian): > 100 µM
TGI (UACC-62 melanoma): > 100 µM
TGI (HS 578T breast): > 100 µM
TGI (DU-145 prostate): > 100 µM
TGI (SW-620 colon): > 100 µM
TGI (SK-MEL-28 melanoma): > 100 µM
TGI (OVCAR-5 ovarian): > 100 µM

C[C@]12C[C@@H](OC(=O)[C@]1(C)O)[C@@H]([C@]1(O)CC[C@H]3[C@@H]4C[C@H]5O[C@]56C[C@H]5O[C@H]5C(=O)[C@]6(C)[C@H]4CC[C@@]31C)C2
TGI (KM12 colon): > 50 µM
TGI (MOLT-4 leukemia): > 50 µM
TGI (NCI-H226 lung): > 50 µM
TGI (SK-MEL-5 melanoma): > 50 µM
TGI (786-0 renal): > 50 µM
TGI (HOP-92 NSCLC): > 50 µM
TGI (OVCAR-4 ovarian): > 50 µM
TGI (UACC-62 melanoma): > 50 µM
TGI (HS 578T breast): > 50 µM
TGI (DU-145 prostate): > 50 µM
TGI (SW-620 colon): > 50 µM
TGI (SK-MEL-28 melanoma): > 50 µM
TGI (OVCAR-5 ovarian): > 50 µM
